From patent US20250353873A1, “COMPOUNDS AND METHODS FOR MODULATING APOE EXPRESSION” (Ionis Pharmaceuticals, Inc., priority 2024, published 2025)
pIC50: −log10 of the molar value. Marks after values point to notes of the source that are not given here. Strand notation (5' to 3'): a small letter for the sugar, then the base; units joined by * are phosphorothioate-linked, units joined directly phosphodiester-linked; [ ] holds rarer units or linkages, { } end groups; capitals alone tell only the bases. [ms] = mesyl phosphoramidate linkage; e = 2'-O-(2-methoxyethyl) (MOE); k = constrained ethyl (cEt); [5mC] = 5-methylcytosine; d = 2'-deoxy (DNA)

Assays:
human APOE RNA [1] = assay: Dose-dependent inhibition of human APOE RNA in HepG2 cells, electroporation, 50,000 cells per well, RT-PCR normalized to GAPDH (Example 4, Tables 8-10); format: cell-based
Method in brief: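 Readout is percent APOE RNA versus untreated controls, measured by RT-PCR (primer probe set RTS3073) and normalized to human GAPDH. Modified oligonucleotides were delivered by electroporation at varying doses into HepG2 cells plated at 50,000 per well.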

human APOE RNA [2] = assay: Activity in APOE C57BL/6NTac-Apoeem7250 knock-in mice, single ICV bolus, 16 weeks (Example 12); format: in vivo; settings: single ICV bolus 300 μg, 16 weeks post treatment, normalized to mouse Ppia
Method in brief: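 A single 300 μg intracerebroventricular dose was given, with PBS-treated mice as reference; cortical and spinal cord tissue was taken 16 weeks later. RT-qPCR quantified human APOE RNA, Ppia-normalized, expressed relative to PBS animals (% control).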

human APOE RNA [3] = assay: Activity in APOE C57BL/6NTac-Apoeem7250 knock-in mice, single ICV bolus, 20 weeks (Example 13); format: in vivo; settings: single ICV bolus 300 μg, 20 weeks post treatment, normalized to mouse Ppia
Method in brief: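 Cortical and spinal cord RNA was assayed by real-time RT-PCR for human APOE, normalized to mouse Ppia and reported as percent of PBS controls. Tissue was taken twenty weeks after one 300 μg intracerebroventricular bolus in APOE knock-in mice, 4 per group.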

human APOE RNA [4] = assay: Potency (dose response, ED50) in APOE C57BL/6NTac-Apoeem7250 knock-in mice, 8 weeks (Example 15); format: in vivo
Method: Modified oligonucleotides described above were tested in the APOE C57BL/6NTac-Apoeem7250 knock-in mouse model described above.
APOE C57BL/6NTac-Apoeem7250 knock-in mice were divided into groups of 3-4 mice each. A group of 4 mice received a single ICV bolus with PBS as a negative control.
Eight weeks post treatment, mice were sacrificed, and RNA was extracted from cortical brain tissue and spinal cord for quantitative real-time RT-PCR analysis of RNA expression of […] using human primer probe set RTS3073 (described herein above). APOE RNA levels were normalized to mouse Ppia. Mouse Ppia was amplified using primer probe set m_cyclo24 (described herein above). Results are presented as percent human APOE RNA relative to the amount of APOE RNA in PBS treated animals, (% control). N.C. indicates values that were not calculated.
The half maximal effective dose (ED50) of each modified oligonucleotide was calculated using GraphPad Prism 10 software (GraphPad Software, San Diego, CA).

human APOE RNA [5] = assay: Duration of action study in APOE C57BL/6NTac-Apoeem7250 knock-in mice (Example 16); format: in vivo; settings: 300 μg ICV
Method in brief: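 Knock-in mice (2-4 per group) received a single ICV bolus of 300 μg oligonucleotide or PBS. At various timepoints, cortex and spinal cord human APOE RNA was measured by RT-qPCR (RTS3073), normalized to mouse Ppia and expressed as % of PBS control.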

human APOE RNA [6] = assay: Duration of action study in APOE C57BL/6NTac-Apoeem7250 knock-in mice (Example 18); format: in vivo; settings: single ICV bolus 300 μg, APOE knock-in mice, normalized to mouse Ppia, relative to PBS
Method in brief: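 Single 300 μg ICV bolus of modified oligonucleotide; PBS-bolus mice as controls. At various timepoints, cortex and spinal cord RNA quantified by RT-qPCR, human APOE normalized to mouse Ppia and expressed as % of PBS-treated control.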

## Aes^mCeoTeoTesGesGksTdsGdzAdzAdzTds^mCdsTdsTdsTdsAdzTksTksAesAe (eA*e[5mC]eTeT*eG*kG*dT*dG[ms]dA[ms]dA[ms]dT*d[5mC]*dT*dT*dT*dA[ms]kT*kT*eA*eA) [Compound No. 1757576]
Human APOE RNA [1]; 5 nM, HepG2, electroporation, 16-hour treatment
  APOE RNA (% UTC): 86 % UTC
Human APOE RNA [1]; 13 nM, HepG2, electroporation, 16-hour treatment
  APOE RNA (% UTC): 74 % UTC
Human APOE RNA [1]; 33 nM, HepG2, electroporation, 16-hour treatment
  APOE RNA (% UTC): 80 % UTC
Human APOE RNA [1]; 82 nM, HepG2, electroporation, 16-hour treatment
  APOE RNA (% UTC): 84 % UTC
Human APOE RNA [1]; 205 nM, HepG2, electroporation, 16-hour treatment
  APOE RNA (% UTC): 74 % UTC
Human APOE RNA [1]; 512 nM, HepG2, electroporation, 16-hour treatment
  APOE RNA (% UTC): 61 % UTC
Human APOE RNA [1]; 1,280 nM, HepG2, electroporation, 16-hour treatment
  APOE RNA (% UTC): 45 % UTC
Human APOE RNA [1]; 3,200 nM, HepG2, electroporation, 16-hour treatment
  APOE RNA (% UTC): 32 % UTC
Human APOE RNA [1]; 8,000 nM, HepG2, electroporation, 16-hour treatment
  APOE RNA (% UTC): 22 % UTC
Human APOE RNA [1]; 20,000 nM, HepG2, electroporation, 16-hour treatment
  APOE RNA (% UTC): 7 % UTC
Human APOE RNA [1]; HepG2, electroporation, 16-hour treatment
  pIC50: 6.09
Human APOE RNA [1]; HepG2 cells, electroporation, 24-hour treatment, 5 nM, Table 8
  APOE RNA (% UTC) 5 nM: 86 % UTC
Human APOE RNA [1]; HepG2 cells, electroporation, 24-hour treatment, 13 nM, Table 8
  APOE RNA (% UTC) 13 nM: 81 % UTC
Human APOE RNA [1]; HepG2 cells, electroporation, 24-hour treatment, 33 nM, Table 8
  APOE RNA (% UTC) 33 nM: 63 % UTC
Human APOE RNA [1]; HepG2 cells, electroporation, 24-hour treatment, 82 nM, Table 8
  APOE RNA (% UTC) 82 nM: 67 % UTC
Human APOE RNA [1]; HepG2 cells, electroporation, 24-hour treatment, 205 nM, Table 8
  APOE RNA (% UTC) 205 nM: 46 % UTC
Human APOE RNA [1]; HepG2 cells, electroporation, 24-hour treatment, 512 nM, Table 8
  APOE RNA (% UTC) 512 nM: 23 % UTC
Human APOE RNA [1]; HepG2 cells, electroporation, 24-hour treatment, 1,280 nM, Table 8
  APOE RNA (% UTC) 1,280 nM: 24 % UTC
Human APOE RNA [1]; HepG2 cells, electroporation, 24-hour treatment, 3,200 nM, Table 8
  APOE RNA (% UTC) 3,200 nM: 11 % UTC
Human APOE RNA [1]; HepG2 cells, electroporation, 24-hour treatment, 8,000 nM, Table 8
  APOE RNA (% UTC) 8,000 nM: 15 % UTC
Human APOE RNA [1]; HepG2 cells, electroporation, 24-hour treatment, 20,000 nM, Table 8
  APOE RNA (% UTC) 20,000 nM: 2 % UTC
Human APOE RNA [1]; reduction of human APOE RNA, HepG2 cells, electroporation, 24-hour treatment, Table 8
  pIC50: 6.85
Human APOE RNA [2]; cortex
  APOE RNA (% control) Cortex: 45 % control
Human APOE RNA [2]; spinal cord
  APOE RNA (% control) Spinal Cord: 14 % control
Human APOE RNA [3]; cortex
  APOE RNA (% control) Cortex: 32 % control
Human APOE RNA [3]; spinal cord
  APOE RNA (% control) Spinal Cord: 31 % control
Human APOE RNA [4]; cortex, ICV dose 10 μg
  APOE RNA (% control) Cortex: 93 % control
Human APOE RNA [4]; cortex, ICV dose 30 μg
  APOE RNA (% control) Cortex: 92 % control
Human APOE RNA [4]; cortex, ICV dose 100 μg
  APOE RNA (% control) Cortex: 52 % control
Human APOE RNA [4]; cortex, ICV dose 300 μg
  APOE RNA (% control) Cortex: 30 % control
Human APOE RNA [4]; cortex, ICV dose 700 μg
  APOE RNA (% control) Cortex: 18 % control
Human APOE RNA [4]; cortex, single ICV bolus, GraphPad Prism 10
  ED 50 (μg) Cortex: 135.7 µg
Human APOE RNA [4]; ICV dose 10 μg
  APOE RNA (% control) Spinal Cord: 33 % control
Human APOE RNA [4]; ICV dose 30 μg
  APOE RNA (% control) Spinal Cord: 15 % control
Human APOE RNA [4]; ICV dose 100 μg
  APOE RNA (% control) Spinal Cord: 13 % control
Human APOE RNA [4]; ICV dose 300 μg
  APOE RNA (% control) Spinal Cord: 9 % control
Human APOE RNA [4]; ICV dose 700 μg
  APOE RNA (% control) Spinal Cord: 9 % control
Human APOE RNA [5]; 7 days post-dose
  APOE RNA (% control) Cortex: 45 % control
  APOE RNA (% control) Spinal Cord: 42 % control
Human APOE RNA [5]; 14 days post-dose
  APOE RNA (% control) Cortex: 32 % control
  APOE RNA (% control) Spinal Cord: 25 % control
Human APOE RNA [6]; 196 days post-dose
  APOE RNA (% control) Cortex: 71 % control
  APOE RNA (% control) Spinal Cord: 28 % control
Human APOE RNA [6]; 224 days post-dose
  APOE RNA (% control) Cortex: 92‡ % control
  APOE RNA (% control) Spinal Cord: 33‡ % control
Human APOE RNA [6]; 285 days post-dose
  APOE RNA (% control) Cortex: 87 % control
  APOE RNA (% control) Spinal Cord: 86 % control
